# Source: patent US20060247233A1, “Thiazoles inhibitors of the alk-5 receptor” (priority 2003, published 2006)
# pIC50: −log10 of the molar value.
# Columns and labels:
# [1] = system: HepG2 cells stably transfected with the PAI-1 promoter linked to a luciferase (firefly) reporter gene, exposed to TGF-β; assay: Assay 1 (Cellular Transcriptional Assay): TGF-β induced PAI-1 promoter luciferase reporter; conditions: for pIC50: Homo sapiens, HepG2, read-out: TGF-β cellular activity (IC50)
# Protocol: The assay was performed in HepG2 cells stably transfected with the PAI-1 promoter (known to be a strong TGF-β responsive promoter) linked to a luciferase (firefly) reporter gene. The compounds were selected on their ability to inhibit luciferase activity in cells exposed to TGF-β. In addition, cells were transfected with a second luciferase (Renilla) gene which was not driven by a TGF-β responsive promoter and was used as a toxicity control.
# 96 well microplates were seeded, using a multidrop apparatus, with the stably transfected cell line at a concentration of 35000 cells per well in 200 μl of serum-containing medium. These plates were placed, in a cell incubator.
# 18 to 24 hours later (Day 2), cell-incubation procedure was launched: Cells were incubated with TGF-β and a candidate compound at concentrations in the range 50 nM to 10 μM (final concentration of DMSO 1%). The final concentration of TGF-β (rhTGFβ-1) used in the test was 1 ng/mL. […] The final volume of the test reaction was 150 μl. Each well contained only one candidate compound and its effect on the PAI-1 promoter was monitored.
# Columns 11 and 12 were employed as controls. Column 11 contained 8 wells in which the cells were incubated in the presence of TGF-β, without a candidate compound. Column 11 was used to determine the ‘reference TGF-β induced firefly luciferase value’ against which values measured in the test wells (to quantify inhibitory activity) were compared. In wells A12 to D12, cells were grown in medium without TGF-β. […]
# 12 to 18 hours later (day 3), the luciferase quantification procedure was launched. […] Following agitation (15 to 30 mins), luciferase activities of the plates were read in a dual-injector luminometer (BMG lumistar). For this purpose, 50 μl of luciferase assay reagent and 50 μl of ‘Stop & Glo’ buffer were injected sequentially to quantify the activities of both luciferases. […] For each of the compounds tested, a concentration response curve was constructed from which an IC50 value was determined graphically.
# [2] = molecular target: T1, recombinant GST-ALK5 (residues 198-503) (Homo sapiens, UniProt P36897); assay: Assay 2 (Alk5 Fluorescence Polarization Assay); type: binding; conditions: rhodamine green-labelled ligand 1 nM, ALK5 10 nM, read-out: ALK5 receptor modulator activity (IC50)
# T1 construct: assays using recombinant GST-ALK5 (residues 198-503); GST (N)
# T1 sequence (P36897 198-503): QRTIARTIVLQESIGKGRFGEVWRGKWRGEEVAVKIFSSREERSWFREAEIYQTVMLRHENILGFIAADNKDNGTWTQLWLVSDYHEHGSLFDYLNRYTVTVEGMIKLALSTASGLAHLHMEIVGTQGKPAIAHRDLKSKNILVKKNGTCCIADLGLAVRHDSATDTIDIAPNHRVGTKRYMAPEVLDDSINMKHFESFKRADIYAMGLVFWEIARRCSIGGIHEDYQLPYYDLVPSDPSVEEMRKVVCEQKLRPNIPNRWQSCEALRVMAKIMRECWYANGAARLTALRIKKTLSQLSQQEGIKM
# Protocol: Assay 2 (Alk5 Fluorescence Polarization Assay)
# Kinase inhibitor compounds conjugated to fluorophores, can be used as fluorescent ligands to monitor ATP competitive binding of other compounds to a given kinase. The increase in depolarization of plane polarized light, caused by release of the bound ligand into solution, is measured as a polarization/anisotropy value. This protocol details the use of a rhodamine green-labelled ligand for assays using recombinant GST-ALK5 (residues 198-503).
# Assay buffer components: 62.5 mM Hepes pH 7.5 (Sigma H-4034), 1 mM DTT (Sigma D-0632), 12.5 mM MgCl2 (Sigma M-9272), 1.25 mM CHAPS (Sigma C-3023). […]
# ALK5 was added to assay buffer containing the above components and 1 nM of the rhodamine green-labelled ligand so that the final ALK5 concentration was 10 nM based on active site titration of the enzyme. […] The plates were read immediately on a UL Acquest fluorescence reader (Molecular Devices, serial number AQ1048) with excitation, emission, and dichroic filters of 485 nm, 530 nm, and 505 nm, respectively. The fluorescence polarization for each well was calculated by the Acquest reader and then imported into curve fitting software for construction of concentration response curves. The normalized response was determined relative to the high controls (1 μl DMSO in column 12, rows […]) and the low controls (1 μl of control compound in column 12, rows E-H). […]
pIC50 [2],melting point [°C],pIC50 [1],SMILES,"firefly and renilla luciferase activities, relative to TGF-β only wells ([1]; 500 μM, in the presence of TGF-β, toxicity control)"
7.80,244 to 246,7.96,"Cc1cccc(-c2nc(N)sc2-c2ccc3ncn(C)c3c2)n1 [Example 1, 5-(1-methyl-benzimidazol-6-yl)-4-(6-methylpyridin-2-yl)-1,3-thiazol-2-amine]",–
–,188 to 190,–,"Cc1cccc(-c2sc(N)nc2-c2ccc3ncoc3c2)n1 [Example 2, 4-(benzoxazol-6-yl)-5-(6-methyl-pyridin-2-yl)-1,3-thiazol-2-amine]",–
–,218 to 220,–,"CCn1cnc2ccc(-c3sc(N)nc3-c3cccc(C)n3)cc21 [Example 3, 5-(1-ethyl-benzimidazol-6-yl)-4-(6-methylpyridin-2-yl)-1,3-thiazol-2-amine]",–
–,214,–,"Nc1nc(-c2ccc3c(c2)OCCO3)c(-c2ccccn2)s1 [Example 8, 4-(Benzodioxan-6-yl)-5-(Pyridin-2-yl)-1,3-thiazol-2-amine]",–
–,226,–,"Nc1nc(-c2ccc3ncccc3c2)c(-c2ccccn2)s1 [Example 9, 4-(Quinolin-6-yl)-5-(pyridin-2-yl)-1,3-thiazol-2-amine]",–

# Second part, the compound before the results:
SMILES,pIC50 [2],melting point [°C],pIC50 [1],"firefly and renilla luciferase activities, relative to TGF-β only wells ([1]; 500 μM, in the presence of TGF-β, toxicity control)"
"O=C1C=CCC1 [CPO, Cyclopentenone, reference compound]",–,–,–,around 50%
"COCCn1cnc2ccc(-c3sc(N)nc3-c3cccc(C)n3)cc21 [Example 4, 5-(1-(2-methoxyethyl)-benzimidazol-6-yl)-4-(6-methylpyridin-2-yl)-1,3-thiazol-2-amine]",–,200 to 202,–,–
"Cc1cccc(-c2nc(N)sc2-c2ccc3c(c2)N(C)C(=O)CO3)n1 [Example 5, 5-[4-methyl-4H-benzo[1,4]oxazin-3-one-6-yl]-4-(6-methylpyridin-2-yl)-1,3-thiazol-2-amine]",–,240 to 242,–,–
"CCN1C(=O)COc2ccc(-c3sc(N)nc3-c3cccc(C)n3)cc21 [Example 6, 5-[4-ethyl-4H-benzo[1,4]oxazin-3-one-6-yl]-4-(6-methylpyridin-2-yl)-1,3-thiazol-2-amine]",7.57,228 to 230,6.98,–
"Cc1cccc(-c2sc(N)nc2-c2ccc3c(c2)OCO3)n1 [Example 7, 4-(Benzo[1,3]dioxol-5-yl)-5-(6-methylpyridin-2-yl)-1,3-thiazol-2-amine]",–,170 to 172,–,–
